27 compounds from ChEMBL document CHEMBL4014328, “Piperazin-1-ylpyridazine Derivatives Are a Novel Class of Human dCTP Pyrophosphatase 1 Inhibitors” (J Med Chem, 2017) can be followed below.

The target of one data set is T1, dCTP pyrophosphatase 1 (Homo sapiens, UniProt Q9H773).
T1 sequence (Q9H773 whole entry): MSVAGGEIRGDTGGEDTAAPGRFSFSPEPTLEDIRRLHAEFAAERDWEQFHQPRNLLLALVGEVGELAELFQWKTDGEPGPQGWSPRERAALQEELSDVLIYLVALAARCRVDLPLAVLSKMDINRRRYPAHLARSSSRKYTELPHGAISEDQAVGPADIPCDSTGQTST

In the next data set the test system is HL-60. Nature of the data set: Synergistic cytotoxicity against human HL60 cells assessed as reduction in cell viability after 72 hrs in presence of 5-AzaC by Resazurin assay. Format: functional. On the technique in general: Resazurin is reduced to fluorescent resorufin, in cell work by metabolically active cells.
A short description of data set [1]: Drug uptake in human HL60 cells at 10 uM. The class given is ADME, cell-based. Conditions: hl-60, 10 µM.
Data set [2] is described as follows: Drug uptake in human MCF7 cells up to 20 uM. Format: ADME, cell-based.
The next data set concerns hTERT-BJ. Nature of the data set: Cytotoxicity against human hTERT-BJ cells assessed as reduction in cell viability after 72 hrs by Resazurin assay. The class given is cell-based.
The target in a further data set is T2, Stearoyl-CoA desaturase (Homo sapiens, UniProt O00767).
T2 sequence (O00767 whole entry): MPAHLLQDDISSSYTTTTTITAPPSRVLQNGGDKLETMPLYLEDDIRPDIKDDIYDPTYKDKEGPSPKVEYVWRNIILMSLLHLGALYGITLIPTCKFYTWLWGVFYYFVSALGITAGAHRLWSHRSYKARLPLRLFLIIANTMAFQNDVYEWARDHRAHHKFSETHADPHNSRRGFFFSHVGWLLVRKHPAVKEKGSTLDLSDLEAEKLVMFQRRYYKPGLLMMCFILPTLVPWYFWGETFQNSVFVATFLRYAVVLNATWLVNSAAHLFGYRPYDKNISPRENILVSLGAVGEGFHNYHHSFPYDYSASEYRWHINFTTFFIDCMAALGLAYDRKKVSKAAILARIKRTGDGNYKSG

Each structure is given as a SMILES string.

Description for Stearoyl-CoA desaturase: Inhibition of SCD1 in human HepG2 cells assessed as ratio of cellular protein product over substrate after 72 hrs
Description for dCTP pyrophosphatase 1: Inhibition of human full length N-terminal His-tagged dCTPase expressed in Escherichia coli BL21(DE3) using dCTP as substrate by HTS-based malachite green assay

In general, IC50 refers to the point on the concentration scale where inhibition reaches its midpoint. A lower IC50 goes with greater potency in that assay. Consider `O=C(Nc1ccccc1)c1ccc(N2CCN(C(=O)c3ccccc3C(F)(F)F)CC2)nn1`, for which the IC50 against dCTP pyrophosphatase 1 was over 10000 nM. `Cc1ccccc1S(=O)(=O)N1CCN(c2ccc(S(=O)(=O)CCc3ccccc3)nn2)CC1` returned an IC50 against dCTP pyrophosphatase 1 of over 10000 nM.

`Cc1ccccc1S(=O)(=O)N1CCN(c2ccc(C3(CCc4ccc(F)cc4)COC3)nn2)CC1` gave an IC50 at dCTP pyrophosphatase 1 of over 10000 nM. `Cc1ccccc1S(=O)(=O)N1CCN(c2ccc(C(=O)NCc3cccs3)nn2)CC1` registered an IC50 against dCTP pyrophosphatase 1 of 51 nM. In the data set on HL-60, the CI is under 1. Regarding `Cc1ccccc1S(=O)(=O)C1CCN(c2ccc(C(=O)NCc3ccccc3)nn2)CC1`, the midpoint of inhibition against dCTP pyrophosphatase 1, the IC50, lay at 530 nM. The same measure, in the same setting: the value for `O=C(NCc1ccccc1)c1ccc(N2CCN(S(=O)(=O)c3ccccc3F)CC2)nn1` was 350 nM. Consider `C#CCOC(=O)c1ccc(N2CCN(S(=O)(=O)c3ccccc3N3CCC(O)CC3)CC2)nn1`, for which the Drug uptake in data set [1] and in data set [2] was over 50% in each case. Besides, the Activity result with hTERT-BJ is given as “Non-Toxic”. Also, the IC50 against dCTP pyrophosphatase 1 was 41 nM. As to `O=C(NCc1ccccc1)c1ccc(N2CCN(S(=O)(=O)c3ccccc3N3CCC(O)CC3)CC2)nn1`, inhibition at dCTP pyrophosphatase 1 was half-maximal at 260 nM (IC50). Same read-out and setting: the value for `Cc1ccccc1S(=O)(=O)N1CCN(c2ccc(C(CO)(CO)CCc3ccc(F)cc3)nn2)CC1` was over 10000 nM; that for `Cc1ccccc1[S+]([O-])C1CCN(c2ccc(C(=O)NCc3ccccc3)nn2)CC1` (stereo not given) was 1100 nM. Regarding `Cc1ncccc1S(=O)(=O)N1CCN(c2ccc(C(=O)NCc3ccc(F)cc3)nn2)CC1`, the Drug uptake in data set [1] and in data set [2] was over 50% in each case. For the same compound, the Activity result in the data set with hTERT-BJ is “Non-Toxic”. This compound also displayed an IC50 at dCTP pyrophosphatase 1 of 36 nM. With `Cc1ccccc1S(=O)(=O)N1CCN(c2ccc(C(=O)NCc3ccc(F)cc3)nn2)CC1`, the Drug uptake in data set [1] and in data set [2] was over 50% each time. Besides, the IC50 on dCTP pyrophosphatase 1 amounted to 65 nM. On to `Cc1ccccc1S(=O)(=O)N1CCCN(c2ccc(C(=O)NCc3ccccc3)nn2)CC1`, for which the IC50 on dCTP pyrophosphatase 1 was determined as 3200 nM. On dCTP pyrophosphatase 1, `O=C(NCCc1ccccc1)c1ccc(N2CCN(C(=O)c3ccccc3C(F)(F)F)CC2)nn1` registered an IC50 of 2800 nM.

For `O=C(NCc1ccccc1)c1ccc(N2CCN(S(=O)(=O)c3ccccc3C(F)(F)F)CC2)nn1`, inhibition against dCTP pyrophosphatase 1 was half-maximal at 250 nM (IC50).

The compound `Cc1ccccc1S(=O)(=O)N1CCN(c2ccc(CNCc3ccccc3)nn2)CC1` had an IC50 against dCTP pyrophosphatase 1 of over 10000 nM. The same measure, in the same setting: under `CN(C)c1ccccc1S(=O)(=O)N1CCN(c2ccc(C(=O)NCc3ccccc3)nn2)CC1` stands 502 nM; under `C=C(CCc1ccc(F)cc1)c1ccc(N2CCN(S(=O)(=O)c3ccccc3C)CC2)nn1`, over 10000 nM. Regarding `Cc1ccccc1S(=O)(=O)N1CCN(c2ccc(C(=O)NCc3ccccc3)nn2)CC1`, the Activity result in the data set with hTERT-BJ was “Non-Toxic”. The IC50 was found to be 170 nM against dCTP pyrophosphatase 1 and 19700 nM against Stearoyl-CoA desaturase. The CI in the data set with HL-60 is under 1.

Consider `C#CCNC(=O)c1ccc(N2CCN(S(=O)(=O)c3cccc(Cl)c3C)CC2)nn1`, for which, at dCTP pyrophosphatase 1, the IC50 was 34 nM.

On dCTP pyrophosphatase 1, `O=C(NCc1ccc(F)cc1)c1ccc(N2CCN(S(=O)(=O)c3cccnc3Cl)CC2)nn1` displayed an IC50 of 25 nM. `O=C(NCc1ccccc1)c1ccc(N2CCN(C(=O)c3ccccc3C(F)(F)F)CC2)nn1` registered an IC50 at dCTP pyrophosphatase 1 of 240 nM. Turning to `Cc1c(Cl)cccc1S(=O)(=O)N1CCN(c2ccc(C(=O)NCc3cccs3)nn2)CC1`, half-maximal inhibition at dCTP pyrophosphatase 1 (IC50) required 19 nM. In the data set with HL-60, the CI is reported as under 1. Turning to `Cc1ccccc1S(=O)(=O)N1CCN(c2ccc(C(=O)CCc3ccc(F)cc3)nn2)CC1`, on dCTP pyrophosphatase 1, the midpoint of inhibition, the IC50, lay at 258 nM. In turn, `Cc1ccccc1S(=O)(=O)N1CC2CC1CN2c1ccc(C(=O)NCc2ccccc2)nn1` (stereo not given) gave an IC50 against dCTP pyrophosphatase 1 of 1700 nM. `Cc1nnc(-c2ccc(N3CCC(Oc4cc(F)ccc4Cl)CC3)nn2)o1` registered an IC50 against Stearoyl-CoA desaturase of 670 nM. Compound `Cc1ccccc1S(=O)(=O)N1CCN(c2ccc(C(=O)OCc3ccccc3)nn2)CC1` displayed an IC50 against dCTP pyrophosphatase 1 of 38 nM.
